In patent publication US10670605B2, “Cysteine reactive probes and uses thereof” (The Scripps Research Institute, priority 2015, dated 2020):
Each block holds one molecule with its values, some of them ahead of it.

How the values were obtained:
Test in all cases: Competitive isoTOP-ABPP in situ (fragment-treated cells)
Format in all cases: cell-based
[1] = molecular target: T1, cysteines in MDA-MB-231 and Ramos cells (Homo sapiens, UniProt O14879)
T1 sequence (O14879 1-490): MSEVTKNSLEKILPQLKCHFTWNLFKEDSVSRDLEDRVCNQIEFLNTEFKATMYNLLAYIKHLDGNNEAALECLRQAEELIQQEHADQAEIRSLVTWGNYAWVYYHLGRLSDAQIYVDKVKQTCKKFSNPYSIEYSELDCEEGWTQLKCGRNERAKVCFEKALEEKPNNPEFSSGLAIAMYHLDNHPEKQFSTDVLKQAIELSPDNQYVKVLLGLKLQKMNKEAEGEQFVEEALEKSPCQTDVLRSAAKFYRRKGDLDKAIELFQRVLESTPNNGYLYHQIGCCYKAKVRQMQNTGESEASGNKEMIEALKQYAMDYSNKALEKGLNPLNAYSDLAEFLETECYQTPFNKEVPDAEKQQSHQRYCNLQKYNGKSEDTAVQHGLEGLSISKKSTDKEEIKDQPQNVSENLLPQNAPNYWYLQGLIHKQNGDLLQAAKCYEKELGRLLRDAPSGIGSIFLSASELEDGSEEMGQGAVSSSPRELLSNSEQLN

[2] = molecular target: T2, cysteines in MDA-MB-231 and Ramos cells (Homo sapiens, UniProt P46734)
T2 sequence (P46734 1-347): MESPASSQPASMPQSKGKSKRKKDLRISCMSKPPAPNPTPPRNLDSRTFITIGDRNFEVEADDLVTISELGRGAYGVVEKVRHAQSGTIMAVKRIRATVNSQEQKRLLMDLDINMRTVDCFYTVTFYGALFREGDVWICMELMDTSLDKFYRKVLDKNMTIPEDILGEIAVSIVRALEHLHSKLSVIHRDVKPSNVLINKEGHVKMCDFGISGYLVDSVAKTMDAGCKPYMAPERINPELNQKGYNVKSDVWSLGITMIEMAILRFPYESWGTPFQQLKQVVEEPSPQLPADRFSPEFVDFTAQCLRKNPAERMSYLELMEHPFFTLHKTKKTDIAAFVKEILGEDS

[3] = molecular target: T3, cysteines in MDA-MB-231 and Ramos cells (Homo sapiens, UniProt P51946)
T3 sequence (P51946 1-323): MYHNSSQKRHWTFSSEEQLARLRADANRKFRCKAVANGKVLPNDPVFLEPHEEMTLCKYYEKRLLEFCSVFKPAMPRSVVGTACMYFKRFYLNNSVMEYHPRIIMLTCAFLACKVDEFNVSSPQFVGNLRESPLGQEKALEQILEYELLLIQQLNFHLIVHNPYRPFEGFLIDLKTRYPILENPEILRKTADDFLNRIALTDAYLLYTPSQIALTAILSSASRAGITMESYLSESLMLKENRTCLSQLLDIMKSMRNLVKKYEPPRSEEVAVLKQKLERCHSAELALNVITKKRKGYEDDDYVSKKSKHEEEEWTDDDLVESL

[4] = molecular target: T4, cysteines in MDA-MB-231 and Ramos cells (Homo sapiens, UniProt Q13162)
T4 sequence (Q13162 38-271): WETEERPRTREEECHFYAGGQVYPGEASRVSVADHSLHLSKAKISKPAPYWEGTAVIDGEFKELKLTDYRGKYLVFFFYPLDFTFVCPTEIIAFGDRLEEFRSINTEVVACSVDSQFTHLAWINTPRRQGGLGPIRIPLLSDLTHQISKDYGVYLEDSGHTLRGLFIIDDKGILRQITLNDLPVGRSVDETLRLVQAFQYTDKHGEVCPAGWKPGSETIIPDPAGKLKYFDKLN

[5] = molecular target: T5, cysteines in MDA-MB-231 and Ramos cells (Homo sapiens, UniProt Q9BRA2)
T5 sequence (Q9BRA2 1-123): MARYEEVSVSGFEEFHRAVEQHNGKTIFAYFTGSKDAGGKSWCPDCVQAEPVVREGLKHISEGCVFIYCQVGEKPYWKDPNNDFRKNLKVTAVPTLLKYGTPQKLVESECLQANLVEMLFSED

[6] = molecular target: T6, cysteines in MDA-MB-231 and Ramos cells (Homo sapiens, UniProt Q9NYL9)
T6 sequence (Q9NYL9 1-352): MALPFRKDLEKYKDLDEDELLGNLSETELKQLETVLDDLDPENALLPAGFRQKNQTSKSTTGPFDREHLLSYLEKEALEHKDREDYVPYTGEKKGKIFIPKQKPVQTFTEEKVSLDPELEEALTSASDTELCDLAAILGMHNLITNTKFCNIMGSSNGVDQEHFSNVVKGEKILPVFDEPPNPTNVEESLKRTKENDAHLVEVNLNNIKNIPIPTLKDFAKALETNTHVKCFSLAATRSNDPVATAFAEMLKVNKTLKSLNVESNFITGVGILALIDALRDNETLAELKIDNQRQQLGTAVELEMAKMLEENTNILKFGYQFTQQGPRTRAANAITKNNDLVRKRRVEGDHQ

[7] = molecular target: T7, cysteines in MDA-MB-231 and Ramos cells (Homo sapiens, UniProt Q9ULW0)
T7 sequence (Q9ULW0 1-747): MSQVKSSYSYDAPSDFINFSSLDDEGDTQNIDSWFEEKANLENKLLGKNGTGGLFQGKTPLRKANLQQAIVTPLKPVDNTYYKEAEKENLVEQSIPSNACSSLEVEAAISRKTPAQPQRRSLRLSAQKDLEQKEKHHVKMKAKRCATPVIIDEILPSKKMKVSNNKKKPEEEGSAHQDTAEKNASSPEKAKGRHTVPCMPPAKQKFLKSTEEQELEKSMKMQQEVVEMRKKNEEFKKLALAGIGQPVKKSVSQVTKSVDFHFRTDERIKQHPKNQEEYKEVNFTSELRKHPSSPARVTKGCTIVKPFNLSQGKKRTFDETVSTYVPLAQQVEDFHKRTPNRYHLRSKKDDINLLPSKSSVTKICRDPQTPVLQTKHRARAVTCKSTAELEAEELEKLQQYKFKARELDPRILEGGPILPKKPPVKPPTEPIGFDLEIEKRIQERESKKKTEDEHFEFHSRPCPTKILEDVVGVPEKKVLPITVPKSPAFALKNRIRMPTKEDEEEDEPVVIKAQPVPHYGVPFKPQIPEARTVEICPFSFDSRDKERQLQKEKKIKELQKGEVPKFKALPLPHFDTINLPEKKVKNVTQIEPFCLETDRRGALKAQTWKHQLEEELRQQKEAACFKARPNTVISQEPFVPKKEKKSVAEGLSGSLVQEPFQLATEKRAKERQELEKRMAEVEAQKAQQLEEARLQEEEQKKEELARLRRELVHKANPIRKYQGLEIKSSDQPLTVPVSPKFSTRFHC

[8] = molecular target: cysteines in MDA-MB-231 and Ramos cells (Homo sapiens, UniProt P38606)
Sequence of cysteines in MDA-MB-231 and Ramos cells (Homo sapiens, UniProt P38606) (P38606 whole entry): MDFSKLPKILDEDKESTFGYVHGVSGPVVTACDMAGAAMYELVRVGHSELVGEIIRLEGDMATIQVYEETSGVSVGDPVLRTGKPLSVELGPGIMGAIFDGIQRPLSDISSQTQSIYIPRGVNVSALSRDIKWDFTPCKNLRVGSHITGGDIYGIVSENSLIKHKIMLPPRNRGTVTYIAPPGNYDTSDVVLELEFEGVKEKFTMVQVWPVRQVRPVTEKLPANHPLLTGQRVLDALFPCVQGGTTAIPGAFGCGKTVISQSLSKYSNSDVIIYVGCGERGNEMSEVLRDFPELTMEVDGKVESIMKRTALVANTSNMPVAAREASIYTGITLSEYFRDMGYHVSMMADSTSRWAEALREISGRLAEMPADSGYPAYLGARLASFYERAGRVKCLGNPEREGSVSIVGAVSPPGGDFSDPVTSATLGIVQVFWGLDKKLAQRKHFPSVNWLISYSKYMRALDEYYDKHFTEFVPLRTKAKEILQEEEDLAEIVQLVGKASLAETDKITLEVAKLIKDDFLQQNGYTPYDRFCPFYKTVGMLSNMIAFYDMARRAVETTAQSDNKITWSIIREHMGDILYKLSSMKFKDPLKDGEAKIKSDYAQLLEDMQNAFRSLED

SMILES: COc1ccc(C2CC(c3cccs3)=NN2C(=O)CCl)cc1 (centres unmarked) [compound 4]
- isoTOP-ABPP reactivity O14879_C343 IFIT3 ([1]; 100 μM in situ 231): 6.6
- isoTOP-ABPP reactivity P38606_C138 ATP6V1A ([8]; 100 μM in situ 231): 20.0
- isoTOP-ABPP reactivity P46734_C207 MAP2K3 ([2]; 100 μM in situ 231): 0.6
- isoTOP-ABPP reactivity P51946_C244 CCNH ([3]; 100 μM in situ 231): 5.3
- isoTOP-ABPP reactivity Q13162_C51 PRDX4 ([4]; 100 μM in situ 231): 1.2
- isoTOP-ABPP reactivity Q9BRA2_C43 TXNDC17 ([5]; 100 μM in situ 231): 3.5
- isoTOP-ABPP reactivity Q9NYL9_C132 TMOD3 ([6]; 100 μM in situ 231): 0.8
- isoTOP-ABPP reactivity Q9ULW0_C536 TPX2 ([7]; 100 μM in situ 231): 20.0

SMILES: COc1cc2c(cc1OC)CN(C(=O)CCl)CC2 [compound 8]
- isoTOP-ABPP reactivity O14879_C343 IFIT3 ([1]; 200 μM, insitu, 231): 2.1
- isoTOP-ABPP reactivity P38606_C138 ATP6V1A ([8]; 200 μM, insitu, 231): 20.0
- isoTOP-ABPP reactivity P46734_C207 MAP2K3 ([2]; 200 μM, insitu, 231): 0.8
- isoTOP-ABPP reactivity Q13162_C51 PRDX4 ([4]; 200 μM, insitu, 231): 1.4
- isoTOP-ABPP reactivity Q9BRA2_C43 TXNDC17 ([5]; 200 μM, insitu, 231): 20.0
- isoTOP-ABPP reactivity Q9NYL9_C132 TMOD3 ([6]; 200 μM, insitu, 231): 0.9
- isoTOP-ABPP reactivity Q9ULW0_C536 TPX2 ([7]; 200 μM, insitu, 231): 20.0

SMILES: O=C(CCl)N1CCC(Cc2ccccc2)CC1 [compound 9]
- isoTOP-ABPP reactivity O14879_C343 IFIT3 ([1]; 200 μM, insitu, 231): 17.2
- isoTOP-ABPP reactivity P38606_C138 ATP6V1A ([8]; 200 μM, insitu, 231): 20.0
- isoTOP-ABPP reactivity P46734_C207 MAP2K3 ([2]; 200 μM, insitu, 231): 3.3
- isoTOP-ABPP reactivity Q13162_C51 PRDX4 ([4]; 200 μM, insitu, 231): 3.3
- isoTOP-ABPP reactivity Q9BRA2_C43 TXNDC17 ([5]; 200 μM, insitu, 231): 20.0
- isoTOP-ABPP reactivity Q9NYL9_C132 TMOD3 ([6]; 200 μM, insitu, 231): 7.6
- isoTOP-ABPP reactivity Q9ULW0_C536 TPX2 ([7]; 200 μM, insitu, 231): 5.7

SMILES: O=C(CCl)N1CCN(S(=O)(=O)c2ccccc2F)CC1 [compound 10]
- isoTOP-ABPP ratio O14879_C343 ([1]; 200 μM, insitu, 231): 4.9
- isoTOP-ABPP ratio P38606_C138 ([8]; 200 μM, insitu, 231): 20.0
- isoTOP-ABPP ratio P46734_C207 ([2]; 200 μM, insitu, 231): 0.8
- isoTOP-ABPP ratio P51946_C244 ([3]; 200 μM, insitu, 231): 1.7
- isoTOP-ABPP ratio Q13162_C51 ([4]; 200 μM, insitu, 231): 2.0
- isoTOP-ABPP ratio Q9BRA2_C43 ([5]; 200 μM, insitu, 231): 20.0
- isoTOP-ABPP ratio Q9ULW0_C536 ([7]; 200 μM, insitu, 231): 17.6

More lines, now with the values ahead:

- isoTOP-ABPP reactivity O14879_C343 IFIT3 ([1]; 200 μM, insitu, 231): 7.6
- isoTOP-ABPP reactivity P46734_C207 MAP2K3 ([2]; 200 μM, insitu, 231): 0.8
- isoTOP-ABPP reactivity P51946_C244 CCNH ([3]; 200 μM, insitu, 231): 1.9
- isoTOP-ABPP reactivity Q13162_C51 PRDX4 ([4]; 200 μM, insitu, 231): 4.6
- isoTOP-ABPP reactivity Q9BRA2_C43 TXNDC17 ([5]; 200 μM, insitu, 231): 15.5
- isoTOP-ABPP reactivity Q9NYL9_C132 TMOD3 ([6]; 200 μM, insitu, 231): 2.2
- isoTOP-ABPP reactivity Q9ULW0_C536 TPX2 ([7]; 200 μM, insitu, 231): 20.0
SMILES: COc1ccc2c(c1)CCCN2C(=O)CCl [compound 2]

- isoTOP-ABPP ratio O14879_C343 ([1]; 200 μM, insitu, 231): 1.0
- isoTOP-ABPP ratio P38606_C138 ([8]; 200 μM, insitu, 231): 20.0
- isoTOP-ABPP ratio P46734_C207 ([2]; 200 μM, insitu, 231): 0.8
- isoTOP-ABPP ratio P51946_C244 ([3]; 200 μM, insitu, 231): 1.0
- isoTOP-ABPP ratio P51946_C244 ([3]; 200 μM, insitu, ramos): 1.2
- isoTOP-ABPP ratio Q9BRA2_C43 ([5]; 200 μM, insitu, 231): 20.0
- isoTOP-ABPP ratio Q9BRA2_C43 ([5]; 200 μM, insitu, ramos): 5.2
- isoTOP-ABPP ratio Q9ULW0_C536 ([7]; 200 μM, insitu, 231): 1.5
SMILES: O=C(CCl)NCCc1c[nH]c2ccccc12 [compound 13]
